Structures can show the parent of a compound that is named as a salt.
How the values were obtained:
WT C3AR1 = WT C3AR1 (Homo sapiens, UniProt Q16581); assay: Label-free DMR agonist response, HEK293T expressing WT C3AR1; assay type: cell-based
ΔPDZ C3AR1 = ΔPDZ C3AR1 (Homo sapiens, UniProt Q16581); assay: Label-free DMR agonist response, HEK293T expressing ΔPDZ C3AR1; assay type: cell-based
WT HRH3 = WT HRH3 (Homo sapiens, UniProt Q9Y5N1); settings: HEK293T
ΔPDZ HRH3 = ΔPDZ HRH3 (Homo sapiens, UniProt Q9Y5N1); settings: HEK293T
ΔPDZ HRH3, sequence (Q9Y5N1 1-449 isoform Q9Y5N1-2): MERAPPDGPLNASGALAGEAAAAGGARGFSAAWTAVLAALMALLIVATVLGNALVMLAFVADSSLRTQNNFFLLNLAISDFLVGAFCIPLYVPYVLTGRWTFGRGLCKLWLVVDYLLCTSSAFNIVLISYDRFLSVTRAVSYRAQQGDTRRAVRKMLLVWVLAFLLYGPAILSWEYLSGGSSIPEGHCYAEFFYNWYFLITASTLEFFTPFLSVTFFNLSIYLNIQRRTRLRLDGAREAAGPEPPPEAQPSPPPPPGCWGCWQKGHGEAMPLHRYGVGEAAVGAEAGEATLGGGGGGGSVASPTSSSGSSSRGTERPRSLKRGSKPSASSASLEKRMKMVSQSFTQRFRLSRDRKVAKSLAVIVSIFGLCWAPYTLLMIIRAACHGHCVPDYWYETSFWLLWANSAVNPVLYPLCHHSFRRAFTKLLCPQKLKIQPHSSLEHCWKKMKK

WT S1PR2 = WT S1PR2 (Homo sapiens, UniProt O95136); assay: Label-free DMR agonist response, HEK293T expressing WT S1PR2; assay type: cell-based
WT S1PR2, sequence (O95136 whole entry): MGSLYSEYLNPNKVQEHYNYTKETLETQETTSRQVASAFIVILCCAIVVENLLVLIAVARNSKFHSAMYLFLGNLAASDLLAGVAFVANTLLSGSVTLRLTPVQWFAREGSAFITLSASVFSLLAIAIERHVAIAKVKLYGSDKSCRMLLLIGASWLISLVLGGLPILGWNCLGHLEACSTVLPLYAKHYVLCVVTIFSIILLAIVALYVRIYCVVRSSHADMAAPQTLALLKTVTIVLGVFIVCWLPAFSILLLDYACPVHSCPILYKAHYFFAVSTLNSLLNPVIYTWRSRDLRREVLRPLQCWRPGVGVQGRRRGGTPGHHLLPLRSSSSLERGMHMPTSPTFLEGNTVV

ΔPDZ S1PR2 = ΔPDZ S1PR2 (Homo sapiens, UniProt O95136); assay: Label-free DMR agonist response, HEK293T expressing ΔPDZ S1PR2; assay type: cell-based
ΔPDZ S1PR2, sequence (O95136 1-349 limits assumed, stated change not applied): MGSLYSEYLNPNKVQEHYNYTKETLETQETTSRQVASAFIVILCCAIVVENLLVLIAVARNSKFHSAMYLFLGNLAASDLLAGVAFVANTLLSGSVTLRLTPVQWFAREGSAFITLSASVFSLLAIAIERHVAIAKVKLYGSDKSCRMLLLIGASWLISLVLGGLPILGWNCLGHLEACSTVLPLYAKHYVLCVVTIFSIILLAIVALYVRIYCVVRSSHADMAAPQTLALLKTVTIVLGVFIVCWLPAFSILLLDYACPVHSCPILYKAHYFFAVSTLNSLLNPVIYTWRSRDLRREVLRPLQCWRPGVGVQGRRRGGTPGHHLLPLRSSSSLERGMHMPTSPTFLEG

ΔPDZ C3AR1, sequence (Q16581 1-478 limits assumed, stated change not applied): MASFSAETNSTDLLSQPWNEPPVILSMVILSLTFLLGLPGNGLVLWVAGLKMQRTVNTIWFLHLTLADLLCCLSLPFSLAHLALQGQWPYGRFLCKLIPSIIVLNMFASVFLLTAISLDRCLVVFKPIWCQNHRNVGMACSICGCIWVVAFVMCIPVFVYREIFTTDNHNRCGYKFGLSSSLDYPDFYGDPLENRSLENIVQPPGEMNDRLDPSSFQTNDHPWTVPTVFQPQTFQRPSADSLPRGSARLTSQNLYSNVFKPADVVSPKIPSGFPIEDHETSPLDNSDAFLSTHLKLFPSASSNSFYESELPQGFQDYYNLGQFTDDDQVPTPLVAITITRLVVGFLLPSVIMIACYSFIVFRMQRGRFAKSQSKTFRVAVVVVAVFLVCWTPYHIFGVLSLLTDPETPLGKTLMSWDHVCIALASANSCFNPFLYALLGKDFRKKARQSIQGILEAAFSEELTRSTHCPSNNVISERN
WT C3AR1, sequence (Q16581 whole entry): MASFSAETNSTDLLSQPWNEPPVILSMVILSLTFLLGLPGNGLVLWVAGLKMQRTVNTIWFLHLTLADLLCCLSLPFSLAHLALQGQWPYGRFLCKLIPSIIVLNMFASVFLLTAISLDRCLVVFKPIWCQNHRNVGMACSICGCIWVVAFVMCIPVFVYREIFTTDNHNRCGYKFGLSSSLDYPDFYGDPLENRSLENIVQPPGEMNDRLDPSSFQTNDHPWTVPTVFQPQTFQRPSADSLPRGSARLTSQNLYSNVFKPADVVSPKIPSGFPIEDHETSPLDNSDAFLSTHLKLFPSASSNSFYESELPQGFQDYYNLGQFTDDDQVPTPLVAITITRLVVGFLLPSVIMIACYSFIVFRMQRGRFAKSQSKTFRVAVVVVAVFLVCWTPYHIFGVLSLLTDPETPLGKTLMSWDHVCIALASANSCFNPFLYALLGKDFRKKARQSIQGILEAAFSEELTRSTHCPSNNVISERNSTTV
WT HRH3, sequence (Q9Y5N1 1-453 isoform Q9Y5N1-2): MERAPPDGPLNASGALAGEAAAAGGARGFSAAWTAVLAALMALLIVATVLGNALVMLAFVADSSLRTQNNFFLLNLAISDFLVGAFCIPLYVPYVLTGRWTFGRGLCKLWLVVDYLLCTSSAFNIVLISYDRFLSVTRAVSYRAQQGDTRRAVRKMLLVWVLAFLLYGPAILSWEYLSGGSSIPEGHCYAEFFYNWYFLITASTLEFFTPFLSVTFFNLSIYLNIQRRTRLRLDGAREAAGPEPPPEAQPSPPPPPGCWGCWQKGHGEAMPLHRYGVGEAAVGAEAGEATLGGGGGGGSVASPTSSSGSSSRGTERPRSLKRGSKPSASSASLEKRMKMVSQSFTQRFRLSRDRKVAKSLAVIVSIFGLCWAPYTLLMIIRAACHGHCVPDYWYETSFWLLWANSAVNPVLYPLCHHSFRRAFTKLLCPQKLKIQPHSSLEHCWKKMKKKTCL

**Q.** How did the “WT Max (DMR)” value (WT C3AR1; WT C3AR1, maximal agonist DMR response) turn out when `NC(=O)Cc1ccccc1` [Benzeneacetamide, benzeneacetamide] was run?
**A.** 36.90 ± 1.82

**Q.** And the “WT TTP” value (WT C3AR1; WT C3AR1, time to peak DMR)?
**A.** 4.50 s

**Q.** What about the “ΔPDZ Max (DMR)” value (ΔPDZ C3AR1; ΔPDZ C3AR1, maximal agonist DMR response) of the same molecule?
**A.** 38.77 ± 2.59

**Q.** What about the “ΔPDZ TTP” value (ΔPDZ C3AR1; ΔPDZ C3AR1, time to peak DMR) of the same molecule?
**A.** 3.50 s

**Q.** Which results are given for `NCCc1c[nH]cn1` [Histamine, histamine dihydrochloride]?
**A.** WT Max (DMR) (WT HRH3; WT HRH3, maximal agonist DMR response): 46.97 ± 3.71; WT TTP (WT HRH3; WT HRH3, time to peak DMR): 7.30 s; ΔPDZ Max (DMR) (ΔPDZ HRH3; ΔPDZ HRH3, maximal agonist DMR response): 60.19 ± 5.07; ΔPDZ TTP (ΔPDZ HRH3; ΔPDZ HRH3, time to peak DMR): 6.30 s

**Q.** For `CCCCCCCCCCCCC/C=C/[C@@H](O)[C@@H](N)COP(=O)(O)O` [Sphingosine-1-phosphate, sphingosine-1-phosphate], which “WT Max (DMR)” value (WT S1PR2; WT S1PR2, maximal agonist DMR response) is on record?
**A.** −40.54 ± 3.76

**Q.** What about the “WT TTP” value (WT S1PR2; WT S1PR2, time to peak DMR) of the same molecule?
**A.** 17.61 s

**Q.** And the “ΔPDZ Max (DMR)” value (ΔPDZ S1PR2; ΔPDZ S1PR2, maximal agonist DMR response)?
**A.** −10.16 ± 4.91

**Q.** And the “ΔPDZ TTP” value (ΔPDZ S1PR2; ΔPDZ S1PR2, time to peak DMR)?
**A.** 16.31 s

— publication PMC4775402 (Pharmacological research, 2016)
